Results from patent US8420145B2, “Isosorbide derivatives and their use as flavor modifiers, tastants, and taste enhancers” (Senomyx, Inc., priority 2008, dated 2013).
Several values for one entry are separate records, joined by “and”; a condition that tells them apart may be missing. Equal entries are not always repeated. Each block holds one compound with its values, some of them ahead of it.

What was measured:
[1] = Time-intensity testing: panelists rate umami intensity over 70 seconds; type: in vivo, human; conditions: for Average Intensity-at-Max (umami intensity): scale 0 to 100
Description: Overview: Panelists Evaluate Various Solutions for Umami Intensity Over Time.
General procedure: Samples presented to panelists include various concentrations of MSG and compounds of interest. Samples may contain 0.1% ethanol to assist in dissolving compounds into solution. Samples are three-digit blind coded and served in 20 ml volumes. Samples are presented to panelists in randomized, counterbalanced order. All data is collected using the Compusense five software program. Umami intensity is rated on a scale from 0 to 100 (0=no umami intensity; 100=strong umami intensity). Panelists sip a sample and begin rating umami intensity. Panelists move the mouse on the horizontal scale to correspond to the umami intensity they perceive. Panelists continue rating the intensity for 70 seconds, and then expectorate the sample. The software program records an intensity score for each panelist for each 1 second period during the sample evaluation.
After tasting each sample, panelists sip and swish water in the mouth for a few seconds and expectorate. They may repeat this several times. Panelists wait 30 minutes before tasting the next sample.
Data analysis: Time-intensity curves are created for each of the samples and various parameters of the test are compared statistically.
To create the graphical representation of the sample: For each of the 70 seconds of the evaluation, panelists individual scores are averaged and presented graphically. For example, each panelist's intensity score at time=0 seconds is averaged and plotted. The same calculation is made for each of the 70 seconds to create the time-intensity curve.
To evaluate the Time to Maximum Intensity parameter: A time-intensity curve is created for each panelist. […] The specific time scores for each panelist are averaged. Next, the average scores for the various samples are compared using ANOVA, and multiple comparisons are performed using Tukey's Honestly Significant Difference test at alpha=0.05.

[2] = system: un-induced I-17 cells; test: FLIPR assay on un-induced I-17 cells (no mifepristone, receptor not expressed); type: cell-based
Description: In order to determine the dependency of hT1R1/hT1R3 for the cell response to different stimuli, selected compounds were subjected to a similar analysis on I-17 cells that had not been induced for receptor expression with mifepristone (designated as un-induced I-17 cells). […] Compounds were presented to un-induced umami cells at 10 μM-or three times the maximum stimulation used in the dose-response analysis.

[3] = 15 ppm (41.62 uM) in Low Sodium Buffer pH 7.1, n = 33
[4] = 2.5 ppm (6.86 uM) in Low Sodium Buffer pH 7.1, n = 36
[5] = 12 mM in Low Sodium Buffer pH 7.1, n = 33
[6] = 12 mM in Low Sodium Buffer pH 7.1, n = 36
[7] = 16 mM in Low Sodium Buffer pH 7.1, n = 36

SMILES: O=C(N[C@H]1CO[C@H]2[C@@H]1OC[C@@H]2n1cc(CC2CCCCC2)nn1)C1CC1 [Example 1, N-((3S,3αR,6S,6αR)-6-(4(cyclohexylmethyl)-1H-1,2,3-triazol-1-yl)-hexahydrofuro[13,2-b]furan-3-yl)cyclopropanecarboxamide]
Average Time-to-Max (time to maximum umami intensity) [1, 3]: 14.9 s
average intensity at maximum compared with Sample 1 (12 mM MSG), Tukey's HSD test ([1]; 15 ppm (41.62 uM), p<0.05): significantly more savory
average intensity at maximum compared with Sample 2 (16 mM MSG), Tukey's HSD test ([1]; 15 ppm (41.62 uM), p>0.1): not significantly different
average time to maximum intensity compared with Sample 2 (16 mM MSG), Tukey's HSD test ([1]; 15 ppm (41.62 uM), p>0.1): not significantly different
Average Intensity-at-Max (umami intensity) [1, 3]: 57

melting point: 181.5 to 182.5 °C
SMILES: O=C(CCCC1CCCCC1)N[C@H]1CO[C@H]2[C@@H]1OC[C@@H]2NC(=O)C1CC1 [Example 29, N-((3S,3αR,6S,6αR)-6-(4cyclohexylbutanamido)hexahydrofuro-[3,2-b]furan-3-yl)cyclopropanecarboxamide]
average time to maximum intensity compared with Sample 4 (12 mM MSG) and Sample 5 (16 mM MSG), Tukey's HSD test ([1]; 2.5 ppm (6.86 uM)): not significantly different
Average Time-to-Max (time to maximum umami intensity) [1, 4]: 18.3 s
average intensity at max compared with Sample 4 (12 mM MSG) or Sample 5 (16 mM MSG), Tukey's HSD test ([1]; 2.5 ppm (6.86 uM), p>0.1): not significantly different
Average Intensity-at-Max (umami intensity) [1, 4]: 57.9

SMILES: N[C@@H](CCC(=O)O)C(=O)[O-].[Na+] [monosodium glutamate, Monosodium Glutamate]
Average Time-to-Max (time to maximum umami intensity) [1, 5]: 15.9 s
Average Time-to-Max (time to maximum umami intensity) [1, 6]: 18.8 s
Average Time-to-Max (time to maximum umami intensity) ([1]; 16 mM in Low Sodium Buffer pH 7.1, n = 33, listed as Sample 2): 17 s and 17.7 s
Average Time-to-Max (time to maximum umami intensity) [1, 7]: 16.3 s
Average Intensity-at-Max (umami intensity) [1, 5]: 45.3
Average Intensity-at-Max (umami intensity) [1, 6]: 49.8
Average Intensity-at-Max (umami intensity) ([1]; 16 mM in Low Sodium Buffer pH 7.1, n = 33): 53.8
Average Intensity-at-Max (umami intensity) [1, 7]: 62.9
functional response in the FLIPR assay [2]: do not show any functional response
